Patent US6908935B2, “Calcium receptor modulating agents” (Amgen Inc., priority 2002, dated 2005)

target: T1, human parathyroid cell Ca^2+ receptor (hPCaR) (Homo sapiens, UniProt P41180); assay: [Ca2+]i measurement with fluo-3 in HEK 293 4.0-7 cells stably transfected with hPCaR; assay type: cell-based; settings: fluo-3 fluorescence (485/530 nm), effect on [Ca^2+]i
T1 construct: expressed in transfected cells
T1 sequence (P41180 20-1078): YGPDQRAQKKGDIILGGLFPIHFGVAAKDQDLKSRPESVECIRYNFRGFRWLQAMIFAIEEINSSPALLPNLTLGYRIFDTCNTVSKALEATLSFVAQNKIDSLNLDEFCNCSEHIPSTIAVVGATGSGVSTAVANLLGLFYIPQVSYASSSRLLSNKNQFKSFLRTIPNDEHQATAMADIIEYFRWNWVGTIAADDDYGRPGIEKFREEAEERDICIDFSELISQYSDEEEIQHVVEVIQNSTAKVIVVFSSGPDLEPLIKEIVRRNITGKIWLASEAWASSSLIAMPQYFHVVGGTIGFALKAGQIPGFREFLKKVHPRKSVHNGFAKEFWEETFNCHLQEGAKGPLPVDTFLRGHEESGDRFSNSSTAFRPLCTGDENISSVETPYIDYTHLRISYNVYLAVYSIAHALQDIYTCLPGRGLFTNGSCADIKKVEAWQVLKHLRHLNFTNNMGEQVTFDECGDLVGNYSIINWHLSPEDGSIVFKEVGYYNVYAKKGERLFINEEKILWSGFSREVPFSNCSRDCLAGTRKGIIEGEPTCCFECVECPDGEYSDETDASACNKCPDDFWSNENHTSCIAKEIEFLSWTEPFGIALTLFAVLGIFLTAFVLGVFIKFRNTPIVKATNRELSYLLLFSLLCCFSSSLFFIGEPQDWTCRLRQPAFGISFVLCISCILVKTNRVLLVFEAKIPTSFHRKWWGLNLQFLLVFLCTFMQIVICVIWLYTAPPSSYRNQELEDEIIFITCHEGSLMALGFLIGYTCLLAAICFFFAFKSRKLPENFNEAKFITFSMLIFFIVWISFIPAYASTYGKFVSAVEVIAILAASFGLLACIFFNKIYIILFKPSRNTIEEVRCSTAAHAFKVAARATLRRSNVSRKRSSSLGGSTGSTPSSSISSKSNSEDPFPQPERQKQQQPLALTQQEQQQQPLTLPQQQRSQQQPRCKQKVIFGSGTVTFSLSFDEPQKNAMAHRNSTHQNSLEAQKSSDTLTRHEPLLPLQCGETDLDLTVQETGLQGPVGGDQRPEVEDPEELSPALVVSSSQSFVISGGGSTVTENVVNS
Procedure, shortened: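 Cytosolic [Ca2+] was read as fluo-3 fluorescence (ex 485/em 530 nm) after compound addition to washed cells. Cells were hPCaR-transfected HEK 293 clone 7, dye-loaded 30 min at 37 °C with 2 μM fluo-3 acetoxymethyl ester in HEPES-buffered saline pH 7.45 containing 1 mM CaCl2 and 0.5% BSA.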

SMILES | EC50 [µM]
COc1cccc([C@@H](C)NCc2ccc(C(F)(F)F)c(-c3ccc(C(F)(F)F)cc3)c2)c1 [(1R)-N-((4′,6-bis(trifluoromethyl)-1,1′-biphenyl-3-yl)methyl)-1-(3-(methyloxy)phenyl)ethanamine] | ≤ 10
COc1cccc([C@@H](C)NCc2ccc(F)c(-c3ccc(F)cc3)c2)c1 [(1R)-N-((4′,6-difluoro-1,1′-biphenyl-3-yl)methyl)-1-(3-(methyloxy)phenyl)ethanamine] | ≤ 10
COc1ccc([C@@H](C)NCc2ccc(F)c(-c3ccc(F)cc3)c2)cc1 [(1R)-N-((4′,6-difluoro-1,1′-biphenyl-3-yl)methyl)-1-(4-(methyloxy)phenyl)ethanamine] | ≤ 10
COc1ccc(-c2cccc(CN[C@H](C)c3cccc4ccccc34)c2)cc1 [(1R)-N-((4′-(methyloxy)-1,1′-biphenyl-3-yl)methyl)-1-(1-naphthalenyl)ethanamine] | ≤ 10
COc1ccc(-c2cccc(CN[C@H](C)c3ccc4ccccc4c3)c2)cc1 [(1R)-N-((4′-(methyloxy)-1,1′-biphenyl-3-yl)methyl)-1-(2-naphthalenyl)ethanamine] | ≤ 10
COc1ccc(-c2cccc(CN[C@H](C)c3cccc(OC)c3)c2)cc1 [(1R)-N-((4′-(methyloxy)-1,1′-biphenyl-3-yl)methyl)-1-(3-(methyloxy)phenyl)ethanamine] | ≤ 10
COc1ccc(-c2cccc(CN[C@H](C)c3ccc(OC)cc3)c2)cc1 [(1R)-N-((4′-(methyloxy)-1,1′-biphenyl-3-yl)methyl)-1-(4-(methyloxy)phenyl)ethanamine] | ≤ 10
COc1ccc(CN[C@H](C)c2cccc3ccccc23)cc1-c1ccc(Cl)cc1 [(1R)-N-((4′-chloro-6-(methyloxy)-1,1′-biphenyl-3-yl)methyl)-1-(1-naphthalenyl)ethanamine] | ≤ 10
COc1cccc([C@@H](C)NCc2ccc(OC)c(-c3ccc(Cl)cc3)c2)c1 [(1R)-N-((4′-chloro-6-(methyloxy)-1,1′-biphenyl-3-yl)methyl)-1-(3-(methyloxy)phenyl)ethanamine] | ≤ 10
COc1ccc(CN[C@H](C)c2ccccc2)cc1-c1ccc(Cl)cc1 [(1R)-N-((4′-chloro-6-(methyloxy)-1,1′-biphenyl-3-yl)methyl)-1-phenylethanamine] | ≤ 10
COc1cccc([C@@H](C)NCc2cccc(-c3ccc(F)cc3)c2)c1 [(1R)-N-((4′-fluoro-1,1′-biphenyl-3-yl)methyl)-1-(3-(methyloxy)phenyl)ethanamine] | ≤ 10
Cc1ccc([C@@H](C)NCc2cccc(-c3ccc(F)cc3)c2)cc1 [(1R)-N-((4′-fluoro-1,1′-biphenyl-3-yl)methyl)-1-(4-methylphenyl)ethanamine] | ≤ 10
C[C@@H](NCc1cccc(-c2ccc(F)cc2)c1)c1ccccc1 [(1R)-N-((4′-fluoro-1,1′-biphenyl-3-yl)methyl)-1-phenylethanamine] | ≤ 10
COc1ccc(CN[C@H](C)c2cccc(F)c2)cc1-c1ccc(F)cc1 [(1R)-N-((4′-fluoro-6-(methyloxy)-1,1′-biphenyl-3-yl)methyl)-1-(3-fluorophenyl)ethanamine] | ≤ 10
COc1ccc([C@@H](C)NCc2ccc(OC)c(-c3ccc(F)cc3)c2)cc1 [(1R)-N-((4′-fluoro-6-(methyloxy)-1,1′-biphenyl-3-yl)methyl)-1-(4-(methyloxy)phenyl)ethanamine] | ≤ 10
COc1ccc(CN[C@H](C)c2ccc(C)cc2)cc1-c1ccc(F)cc1 [(1R)-N-((4′-fluoro-6-(methyloxy)-1,1′-biphenyl-3-yl)methyl)-1-(4-methylphenyl)ethanamine] | ≤ 10
COCCOc1ccc(CN[C@H](C)c2cccc3ccccc23)cc1-c1ccc(C(F)(F)F)cc1 [(1R)-N-((6-((2-(methyloxy)ethyl)oxy)-4′-(trifluoromethyl)-1,1′-biphenyl-3-yl)methyl)-1-(1-naphthalenyl)ethanamine] | ≤ 10
COCCOc1ccc(CN[C@H](C)c2cccc(OC)c2)cc1-c1ccc(C(F)(F)F)cc1 [(1R)-N-((6-((2-(methyloxy)ethyl)oxy)-4′-(trifluoromethyl)-1,1′-biphenyl-3-yl)methyl)-1-(3-(methyloxy)phenyl)ethanamine] | ≤ 10
COCCOc1ccc(CN[C@H](C)c2ccccc2)cc1-c1ccc(C(F)(F)F)cc1 [(1R)-N-((6-((2-(methyloxy)ethyl)oxy)-4′-(trifluoromethyl)-1,1′-biphenyl-3-yl)methyl)-1-phenylethanamine] | ≤ 10

Results, then the compound that gave them:

EC50 [µM] | SMILES
≤ 10 | COc1ccc(CN[C@H](C)c2ccccc2)cc1-c1ccc(OCC2CCCO2)nc1 (stereo partly drawn) [(1R)-N-((4-(methyloxy)-3-(6-((tetrahydro-2-furanylmethyl)oxy)-3-pyridinyl)phenyl)methyl)-1-phenylethanamine]
≤ 10 | COc1ccc(-c2cc(CN[C@H](C)c3ccc4ccccc4c3)ccc2OC)nn1 [(1R)-N-((4-(methyloxy)-3-(6-(methyloxy)-3-pyridazinyl)phenyl)methyl)-1-(2-naphthalenyl)ethanamine]
≤ 10 | COc1cccc([C@@H](C)NCc2ccc(OC)c(-c3ccc(OC)nn3)c2)c1 [(1R)-N-((4-(methyloxy)-3-(6-(methyloxy)-3-pyridazinyl)phenyl)methyl)-1-(3-(methyloxy)phenyl)ethanamine]
≤ 10 | COc1ccc([C@@H](C)NCc2ccc(OC)c(-c3ccc(OC)nn3)c2)cc1 [(1R)-N-((4-(methyloxy)-3-(6-(methyloxy)-3-pyridazinyl)phenyl)methyl)-1-(4-(methyloxy)phenyl)ethanamine]
≤ 10 | COc1ccc(-c2cc(CN[C@H](C)c3ccccc3)ccc2OC)nn1 [(1R)-N-((4-(methyloxy)-3-(6-(methyloxy)-3-pyridazinyl)phenyl)methyl)-1-phenylethanamine]
≤ 10 | COc1ccc(-c2cc(CN[C@H](C)c3cccc4ccccc34)ccc2OC)cn1 [(1R)-N-((4-(methyloxy)-3-(6-(methyloxy)-3-pyridinyl)phenyl)methyl)-1-(1-naphthalenyl)ethanamine]
≤ 10 | COc1cccc([C@@H](C)NCc2ccc(OC)c(-c3ccc(OC)nc3)c2)c1 [(1R)-N-((4-(methyloxy)-3-(6-(methyloxy)-3-pyridinyl)phenyl)methyl)-1-(3-(methyloxy)phenyl)ethanamine]
≤ 10 | COc1ccc(CN[C@H](C)c2ccccc2)cc1-c1ccc(C(F)(F)F)nc1 [(1R)-N-((4-(methyloxy)-3-(6-(trifluoromethyl)-3-pyridinyl)phenyl)methyl)-1-phenylethanamine]
≤ 10 | COc1ccc(CN[C@H](C)c2cccc3ccccc23)cc1-c1ccc(C)nc1 [(1R)-N-((4-(methyloxy)-3-(6-methyl-3-pyridinyl)phenyl)methyl)-1-(1-naphthalenyl)ethanamine]
≤ 10 | COc1ccc(CN[C@H](C)c2cccc3ccccc23)cc1-c1ccc2ncccc2c1 [(1R)-N-((4-(methyloxy)-3-(6-quinolinyl)phenyl)methyl)-1-(1-naphthalenyl)ethanamine]
≤ 10 | COc1ccc(CN[C@H](C)c2ccccc2)cc1-c1ccc2ncccc2c1 [(1R)-N-((4-(methyloxy)-3-(6-quinolinyl)phenyl)methyl)-1-phenylethanamine]
≤ 10 | COc1ccc(CN[C@H](C)c2cccc3ccccc23)cc1-c1ccc2nccnc2c1 [(1R)-N-((4-(methyloxy)-3-(6-quinoxalinyl)phenyl)methyl)-1-(1-naphthalenyl)ethanamine]
≤ 10 | COc1ccc(CN[C@H](C)c2ccccc2)cc1-c1ccc2nccnc2c1 [(1R)-N-((4-(methyloxy)-3-(6-quinoxalinyl)phenyl)methyl)-1-phenylethanamine]
≤ 10 | COc1cccc([C@@H](C)NCc2ccc(Cl)c(-c3cccnc3)c2)c1 [(1R)-N-((4-chloro-3-(3-pyridinyl)phenyl)methyl)-1-(3-(methyloxy)phenyl)ethanamine]
≤ 10 | C[C@@H](NCc1ccc(Cl)c(-c2ccc(OCC(F)(F)F)nc2)c1)c1cccc2ccccc12 [(1R)-N-((4-chloro-3-(6-((2,2,2-trifluoroethyl)oxy)-3-pyridinyl)phenyl)methyl)-1-(1-naphthalenyl)ethanamine]
≤ 10 | C[C@@H](NCc1ccc(C(F)(F)F)c(-c2ccc(C(F)(F)F)cc2)c1)c1cccc2ccccc12 [(1R)-N-((4′,6-bis(trifluoromethyl)-1,1′-biphenyl-3-yl)methyl)-1-(1-naphthalenyl)ethanamine]
